Assays:
[1] = biological target: Kv1.5 potassium channel subunit (Homo sapiens, UniProt P22460); assay: Electrophysiological studies (whole cell patch clamp); format: cell-based; details: inhibition of Kv1.5 potassium currents, Chinese hamster ovary cells stably expressing Kv1.5
Method: Electrophysiological recordings of potassium currents in Chinese hamster ovary cells stably expressing the gene construct for the Kv1.5 potassium channel subunit were performed using the whole cell configuration of the patch clamp technique (Hamill et al., Pflugers Archiv 391:85, 1981). Cell lines expressing Kv1.5 were prepared using standard techniques known to those skilled in the art. Cells were plated on glass coverslips at a density of 2×10^4 cells/coverslip and used within 24-48 hours. Solutions used for electrophysiological recordings were as follows. Extracellular bathing solutions contained (in mM) 132 NaCl, 5.4 KCl, 1.8 CaCl2, 0.8 MgCl2, 10 HEPES, 5 glucose at pH 7.3. Electrode pipette solutions for measuring Kv1.5 contain (in mM) 100 KF, 40 KCl, 5 NaCl, 2 MgCl2, 5 mM EGTA, 10 mM HEPES and 5 glucose at pH 7.4, 295 mOsm. The coverslips were placed in a small chamber (volume ˜200 μl) on the mechanical stage of an inverted microscope and […] (2 ml/min) with extracellular recording solution. Drug application is achieved via a series of narrow-bore glass capillary tubes (inner diameter ˜100 μm) positioned approximately 200 μm from the cell.
The testing results of selective compounds from Tables 1 and 2 using this assay are reported in Table 3 (EP) as the potency for inhibition of Kv1.5 potassium currents by compounds of the invention.

human Kv1.5 = biological target: T1, human Kv1.5 (Homo sapiens, UniProt P22460); assay: 86Rb efflux assay; format: cell-based; details: inhibition of 86Rb efflux through Kv1.5 potassium channels expressed in CHO cells; 70 mM KCl depolarization; read-out: IC50 (μM) (flux)
T1 construct: expressed in transfected cells
T1 sequence (P22460 whole entry): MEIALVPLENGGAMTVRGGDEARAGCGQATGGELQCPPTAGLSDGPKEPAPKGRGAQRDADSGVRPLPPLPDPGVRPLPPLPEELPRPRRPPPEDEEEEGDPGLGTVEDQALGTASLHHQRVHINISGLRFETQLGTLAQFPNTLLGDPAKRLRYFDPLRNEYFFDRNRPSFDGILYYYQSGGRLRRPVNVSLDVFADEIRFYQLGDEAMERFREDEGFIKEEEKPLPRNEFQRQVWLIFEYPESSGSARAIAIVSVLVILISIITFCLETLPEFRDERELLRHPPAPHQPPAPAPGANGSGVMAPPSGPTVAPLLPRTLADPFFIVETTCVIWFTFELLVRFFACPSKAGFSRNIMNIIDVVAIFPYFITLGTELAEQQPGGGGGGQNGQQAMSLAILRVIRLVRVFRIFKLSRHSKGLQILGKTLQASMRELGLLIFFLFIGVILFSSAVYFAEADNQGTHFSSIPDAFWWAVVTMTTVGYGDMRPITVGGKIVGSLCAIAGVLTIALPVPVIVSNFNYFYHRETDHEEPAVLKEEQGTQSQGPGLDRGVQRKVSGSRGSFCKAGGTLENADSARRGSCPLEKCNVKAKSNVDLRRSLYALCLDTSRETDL
Method: Cells stably transfected with cDNA for human Kv1.5 (in pcDNA3 vector) were grown as confluent monolayers in 96 well tissue culture plates in MEM alpha with 10% heat inactivated fetal bovine serum and 400 μg/ml G418. Cells were incubated overnight in growth media containing 1 μCi/ml ^86Rb to permit intracellular uptake of the isotope. At the end of the incubation period, the ^86Rb solution is aspirated and the cells washed three times with Earls Balanced Salt Solution (EBSS) which contains (in mM) 132 NaCl, 5.4 KCl, 1.8 CaCl2, 0.8 mM MgCl2 10 mM HEPES and 5 mM glucose. The cells were then preincubated for 10 minutes at room temperature in 100 μl/well of EBSS or EBSS containing test compounds. At the end of this period the wells were aspirated and to each well is then added 100 μl of a modified EBSS solution containing 70 mM KCl (NaCl replaced by KCl) and the compound to be tested. The high KCl concentration is utilized to depolarize the cells to membrane potentials that will activate Kv1.5 channels. After a 1 minute incubation in 70 mM KCl EBSS plus test compound, the solution is removed and placed into the appropriate well of a 96 well counting plate for analysis. Finally 100 μl of 0.1% sodium dodecyl sulfate in EBSS is added to each well to lyse the cells. The lysate is taken for analysis to determine final cell content of ^86Rb. Samples were counted in a Wallac Microbeta liquid scintillation counter by Cerenkov emission. Efflux is expressed as a percentage of the initial cell content of ^86Rb.
The testing results of selective compounds from Tables 1 and 2 using this assay are reported in Table 3 (flux) as the potency for inhibition of ^86Rb efflux through Kv1.5 potassium channels expressed in CHO cells by compounds of the invention.

Kv1.5 potassium channel subunit, sequence (P22460 whole entry): as above

## COc1ccc(CCN2C(=O)CSC2c2cccc(OC)c2)cc1 (centres unmarked) [1 of Table 1]
[1]
  IC50: 0.6 µM
Human Kv1.5
  IC50: 3.9 µM

## COc1ccc(CCN2C(=O)CCSC2c2ccc(C)c(C)c2)cc1 (centres unmarked) [2 of Table 2]
[1]
  IC50: 0.3 µM
Human Kv1.5
  IC50: 1.5 µM

## COc1ccc(CCN2C(=O)CSC2c2ccc(OC)c(OC)c2)cc1 (centres unmarked) [5 of Table 1]
[1]
  IC50: 6 µM
Human Kv1.5
  IC50: 29.6 µM

## COc1cccc(CCN2C(=O)CSC2c2ccc3c(c2)OCO3)c1 (centres unmarked) [8 of Table 1]
[1]
  IC50: 1.2 µM
Human Kv1.5
  IC50: 9.9 µM

## COc1ccc(CCN2C(=O)CCSC2c2ccc3c(c2)OCO3)cc1 (centres unmarked) [18 of Table 2]
[1]
  IC50: 1 µM
Human Kv1.5
  IC50: 1.5 µM

## COc1ccc(CCN2C(=O)CSC2c2ccc(F)c(F)c2)cc1 (centres unmarked) [23 of Table 1]
Human Kv1.5
  IC50: 14.5 µM

## COc1ccc(CN2C(=O)CSC2c2cccc(OC)c2)cc1 (centres unmarked) [36 of Table 1]
[1]
  IC50: 4.7 µM
Human Kv1.5
  IC50: 30 µM

## COc1ccc(CCN2C(=O)C(C)SC2c2ccc3c(c2)OCCO3)cc1 (centres unmarked) [45 of Table 1]
[1]
  IC50: 0.6 µM

## COc1ccc(CCN2C(=O)CSC2c2ccc(C)c(C)c2)cc1 (centres unmarked) [52 of Table 1]
[1]
  IC50: 0.2 µM
Human Kv1.5
  IC50: 0.9 µM

## Cc1ccc(C2SCC(=O)N2CCCCc2ccccc2)cc1C (centres unmarked) [60 of Table 1]
[1]
  IC50: 0.3 µM
Human Kv1.5
  IC50: 6.9 µM

## CCc1ccc(C2SCC(=O)N2CCc2ccc(OC)cc2)s1 (centres unmarked) [67 of Table 1]
[1]
  IC50: 0.7 µM
Human Kv1.5
  IC50: 1.3 µM

## CCCCCCN1C(=O)CSC1c1cccc(OC)c1 (centres unmarked) [77 of Table 1]
[1]
  IC50: 1.6 µM
Human Kv1.5
  IC50: 10.5 µM

## Cc1ccc(C2SCC(=O)N2CC#Cc2ccccc2)cc1C (centres unmarked) [82 of Table 1]
Human Kv1.5
  IC50: 4.7 µM
